This assay addresses T1, NQO1 (Homo sapiens, UniProt P15559).
T1 construct: endogenous in cells; host or cells: OC3-IV2 (human oral squamous cell carcinoma), cytosolic fraction / lysate supernatant
The experiment in a line: NQO1 enzymatic activity assay (substrate reduction with NADH and WST1). In kind it is biochemical. As to conditions: cytosolic fractions of OC3-IV2 cells; isoplumbagin 5 μM and 10 μM, menadione 1X and 2X. As to the method: FIG. 4 proves that isoplumbagin is a substrate of NQO1. The cytosolic fractions of OC3-IV2 cells were used for the NQO1 enzymatic activity assay. The NQO1 enzyme activity was calculated by measuring the simultaneous reduction of menadione or isoplumbagin with cofactor NADH and WST1 (a highly sensitive tetrazolium reagent) which leads to increased absorbance at 450 nm. NQO1 activity assay kit (#ab184867) was purchased from Abcam (Cambridge, Mass., USA). OC3-IV2 cells were lysed with 1X extraction buffer containing 1 mM phenylmethylsulfonyl fluoride (PMSF) for 15 min on ice, and then centrifuged at 17,000×g at 4° C. for 20 min. The supernatant was collected and then the protein concentration of each sample was determined by BCA assays (Santa Cruz Biotechnology). Diluted sample and reaction buffer were added into 96-wells plate containing menadione (1X and 2X) or different concentrations of isoplumbagin (5 μM and 10 μM) with cofactor NADH and WST1. The absorbance of reduced WST1 was measured at 450 nm wavelengths by a spectrophotometer. Data from three independent experiments are presented as mean ±SEM (*P<0.05 compared with no substrate, paired Student's t-test).
On the technique in general: Formazan colour is commonly taken as a measure of viable cells.

This is an account of results in patent US20210113492A1, “METHOD FOR INHIBITING PROLIFERATION AND METASTASIS OF CANCER CELLS BY USING NAPHTHOQUINONE DERIVATIVE” (National Tsing Hua University, priority 2019, published 2021).

T1 sequence (P15559 whole entry): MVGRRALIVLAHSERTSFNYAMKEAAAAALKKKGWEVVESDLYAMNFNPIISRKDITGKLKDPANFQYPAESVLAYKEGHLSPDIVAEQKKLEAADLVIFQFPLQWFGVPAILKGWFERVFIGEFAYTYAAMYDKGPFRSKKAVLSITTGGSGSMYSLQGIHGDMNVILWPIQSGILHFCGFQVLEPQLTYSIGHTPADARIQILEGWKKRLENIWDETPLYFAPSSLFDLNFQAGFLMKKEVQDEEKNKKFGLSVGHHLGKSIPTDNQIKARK

`CC1=CC(=O)c2ccccc2C1=O` [menadione, reference compound]: the “substrate of NQO1 (reduction with NADH and WST1, absorbance at 450 nm)” value was “substrates of NQO1”.
